Laboratory results published in patent US6399318B1, “Immunoassay for phthalic acid esters” (Otsuka Pharmaceutical Co., Ltd., priority 2000, dated 2002).
In brackets after ≈: the same amount, converted by molar mass. Structures can show the parent of a compound that is named as a salt.

What was measured:
Type in all cases: binding, rabbit
[1] = tested on: Antiserum RY778 (anti-phthalic acid ester antibody); assay: ELISA for diethyl phthalate and cross-reactivity test; details: for Cross-reactivity: relative to diethyl phthalate (calculated as 100%) at B/B0=50, antiserum RY778; for IC50: competitive ELISA, antiserum RY778, biotinylated diethyl phthalate derivative as labeled antigen
Method: An ELISA system of the present invention for diethyl phthalate was designed in the following manner.
Diethyl phthalate was diluted as follows. A solution (857 μg/mL) of 12 mg of diethyl phthalate in 15.7% DMSO was 10-fold diluted with PBS buffer to give a standard solution (85.7 μg/ml). Five-fold dilution of the standard solution was repeated to give solutions of various concentrations (17.1 μg/ml, 3.4 μg/ml, 0.69 μg/ml, 0.137 μg/ml, 0.027 μg/ml and 0.005 μg/ml). These solutions were used as diluted standard antigen solutions.
Biotin-Arg-Lys-aminocapronyl-4-amino-diethyl phthalate synthesized in Example 1 (4) was diluted to 2 ng/ml with PBS buffer and used as a labeled antigen solution.
Antiserum RY778 (anti-phthalic acid ester antibody) synthesized in Example 4 was diluted 10,000-fold with PBS buffer (containing 0.1% BSA and 0.1% Tween 20) and used as an antibody solution.
Goat anti-rabbit IgG (Jackson Immuno Research) was diluted 200-fold with 0.1M phosphate buffer (pH8.0), and 100 μl of the diluted IgG was pipetted into each well of a 96-well microtiter plate (Maxi Sorp, Nunc). The plate was allowed to stand at 25° C. for 18 to 20 hours and then the supernatant was removed. Subsequently, 340 μl of Block Ace (Dainippon Pharmaceutical Co., Ltd.) was pipetted into each well and the plate was allowed to stand at 25° C. for 18 to 20 hours whereby blocking was completed.
After the plate was washed with a wash solution (0.15M NaCl containing 0.1% Tween 20) 5 times, 50 μl of a diluted standard antigen solution or sample, 50 μl of the labeled antigen solution and 100 μl of the antibody solution were added to each well. The culture was incubated at 4° C. for 18 to 20 hours. The plate was washed 3 times with 0.3 ml of the wash solution, and then 0.1 ml of a streptavidin-horseradish peroxidase conjugate (×2500) was added. After incubation at room temperature for 1.5 hours, the plate was washed with 0.3 ml of the wash solution 4 times and then a tetramethyl benzidine-containing colorant (0.1 ml, product of Sigma) was added. After 30 minutes of coloring, 2N sulfuric acid was added to stop the reaction. Absorbance at 450 nm was measured.
A standard curve for diethyl phthalate was obtained from the results of the diluted standard antigen solutions (FIG. 1). In FIG. 1, the ordinate denotes absorbance (at 450 nm) and the abscissa denotes standard antigen concentration (ng/ml).
The cross-reactivity of the antibody of the invention with diethyl phthalate and structurally similar compounds was tested using the ELISA system described in Example 5.
Cross-reactivity (%) is defined as the molar concentration of each test antigen, relative to the concentration of diethyl phthalate (calculated as 100%), at B/B0=50.

antiserum RY850 = assay: ELISA for benzyl n-butyl phthalate and cross-reactivity test; details: ELISA system for benzyl n-butyl phthalate
Method: An ELISA system of the invention for benzyl n-butyl phthalate was designed in a manner similar to that of Example 5, using benzyl n-butyl phthalate (product of Kanto Chemical Co., Inc.) as a standard antigen, using biotin-Arg-Lys-aminocapronyl-4-(or 5-)amino-benzyl n-butyl phthalate of Example 2 (2-6) as a labeled antigen and using antiserum RY850 (10,000-fold diluted) as an antiserum. The antiserum RY850 was prepared as in Example 4, but the aminocapronyl-4-(or 5-)amino-benzyl n-butyl phthalate of Example 2 (2-5) was used in place of aminocapronyl-4-amino-diethyl phthalate.
A standard curve for benzyl n-butyl phthalate was obtained (FIG. 2). In FIG. 2, the ordinate denotes absorbance (at 492 nm) and the abscissa denotes standard antigen concentration (ng/ml).
The cross-reactivity of the antibody of the invention with benzyl n-butyl phthalate and structurally similar compounds was determined using the ELISA system described in Example 8.

antiserum RY849 = assay: ELISA for di-n-butyl phthalate and cross-reactivity test; details: ELISA system for di-n-butyl phthalate
Method: An ELISA system of the invention for di-n-butyl phthalate was designed in a manner similar to that of Example 5, using di-n-butyl phthalate (product of Wako Pure Chemical Industries, Inc.) as a standard antigen, using biotin-Arg-Lys-aminocapronyl-4-amino-di-n-butyl phthalate of Example 2 (2-4) as a labeled antigen and using antiserum RY849 (10,000-fold diluted) as an antiserum. The antiserum RY849 was prepared as in Example 4, but the aminocapronyl-4-amino-di-n-butyl phthalate of Example 2 (2-3) was used in place of aminocapronyl-4-amino-diethyl phthalate of Example 4.
A standard curve for di-n-butyl phthalate was obtained (FIG. 3).
The cross-reactivity of the antibody of the invention with di-n-butyl phthalate and structurally similar substances was determined using the ELISA system described in Example 10.

Compound | Cross-reactivity [1] [%] | IC50 [1] [µg/mL] | Cross-reactivity (antiserum RY849) [%] | further results
O=C(O)c1ccccc1 [Benzoic acid] | <0.001 |  |  | Cross-reactivity ([1]; listed as benzoic acid): less than 0.001%
CCCCC(CC)COC(=O)c1ccccc1C(=O)OCC(CC)CCCC (stereo not shown) [Di(2-ethylhexyl)phtalate] | <0.001 |  |  | 
CCCCOC(=O)c1ccccc1C(=O)OCCCC [Dibutyl phthalate] | 0.014 | 3.893432 (≈ 14 µM) |  | Cross-reactivity (antiserum RY850): 38.9%; Cross-reactivity ([1]; listed as dibutyl phthalate): about 0.01%
CCOC(=O)c1ccccc1C(=O)OCC [Diethyl phthalate] | 100 | 0.000546 (≈ 0.00246 µM) | 4 | Cross-reactivity ([1]; listed as diethyl phthalate): high reactivity
COC(=O)c1ccccc1C(=O)OC [Dimethyl phthalate] | 0.556 | 0.098178 (≈ 0.506 µM) | 1.2 | Cross-reactivity ([1]; listed as dimethyl phthalate): about 0.56%
C/C(=C(/C)c1ccc(O)cc1)c1ccc(O)cc1 [Dimethyl stilbestrol] | <0.001 |  |  | Cross-reactivity ([1]; listed as dimethyl stilbestrol): does not show substantial cross-reactivity
CCOC(C)=O [Ethyl acetate] | 0.012 | 4.480033 |  | 
CCOC(=O)c1ccccc1 [Ethyl benzoate] | 0.012 | 4.391316 (≈ 29.2 µM) |  | 
CCOC=O [Ethyl formate] | 0.018 | 3.001226 |  | 
O=C(O)c1ccccc1C(=O)O [Phthalic acid] | <0.001 |  |  | 
CCCCOC(=O)c1ccccc1C(=O)OCc1ccccc1 [benzyl n-butyl phthalate] |  |  | 100 | 
CC/C(=C(/CC)c1ccc(O)cc1)c1ccc(O)cc1 [diethyl stilbestrol] |  |  | 1.5 | 
nonylphenol |  |  | 3.4 | Cross-reactivity (antiserum RY850): 2.3%
